Laboratory results: US6900200B2, “Tricyclic hydroxy carboxamides and derivatives thereof tocolytic oxytocin receptor antagonists” (Wyeth, priority 2001, dated 2005)

Target: T1, human oxytocin receptor (Homo sapiens, UniProt P30559)
T1 construct: host or cells: CHO cells, pcDNA3.1 vector
T1 sequence (P30559 1-389): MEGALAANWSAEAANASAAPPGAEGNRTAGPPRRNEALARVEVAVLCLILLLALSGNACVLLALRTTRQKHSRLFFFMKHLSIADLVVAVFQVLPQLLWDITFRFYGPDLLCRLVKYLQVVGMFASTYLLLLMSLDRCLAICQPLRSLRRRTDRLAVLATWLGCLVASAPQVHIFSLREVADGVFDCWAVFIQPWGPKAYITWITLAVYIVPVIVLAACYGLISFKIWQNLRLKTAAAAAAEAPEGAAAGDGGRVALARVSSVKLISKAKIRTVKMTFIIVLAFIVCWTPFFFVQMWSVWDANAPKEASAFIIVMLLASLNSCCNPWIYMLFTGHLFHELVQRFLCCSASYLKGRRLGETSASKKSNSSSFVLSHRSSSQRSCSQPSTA
Assay: Oxytocin binding in CHO cell membranes expressing human oxytocin receptors ([3H]oxytocin radioligand binding)
Conditions: for inhibition at 0.1 µM: @ 100 nM, read-out: OT % inhibition @ 100 nM
From the text: Oxytocin Binding in Chinese Hamster Ovary Cell Membranes Expressing Human Oxytocin Receptors
Chinese Hamster Ovary (CHO) cells stably transfected with the human oxytocin receptor (cf. Tanizawa et al., U.S. Pat. No. 5,466,584 (1995) to Rohto Pharmaceutical Co. Ltd., Osaka, Japan) were obtained from M. Thibonnier, Case Western Reserve University School of Medicine, Cleveland, Ohio.
A. Passaging and Amplification of Cells
CHO cells transfected with the human oxytocin receptors obtained from M. Thibonnier (pcDNA3.1 vector) are allowed to grow to confluency (approx. >90%) in T-150 flasks under sterile conditions, in a cell culture medium of F-12 Nutrient Mixture (HAM) with L-glutamine (Gibco Cat. #11765-054) containing 15 mM HEPES (Gibco Cat. #15630-080), 1% antibiotic/antimycotic (add 5 mL 100×, Gibco Cat. #15240-062 per 500 mL F-12), 400 μg/mL of Geneticin (add 4 mL of 50 mg/mL per 500 mL F-12) and 10% Fetal Bovine Serum (Qualified, heat inactivated, Gibco Cat. #16140-063). The medium is removed by aspiration and the cells are washed with 10 mL of Hank's Balanced Salt solution (Gibco Cat. #14175-095). The salt solution is removed by aspiration and the cells trypsinized with 5 mL of trypsin-EDTA (0.05% trypsin, 0.53 mM EDTA-4Na, Gibco Cat. #25300-070) for 1 min. The trypsin is removed by aspiration and the cells dislodged by tapping. Cell Culture medium (e.g. 30 mL for 1:30 split) is immediately added and mixed well to inactivate trypsin. 1 mL of detached cells is added to new culture flasks containing fresh Cell Culture medium (e.g. into 25 mL per T-150 flask), and mixed gently. The cells are incubated at 37° C. in 5% CO2. The medium is changed at 3 to 4 days interval (or as appropriate). The cells grow to confluency (approx. >75%-95%) within 7-8 days. All steps are done under sterile conditions.
The cells are washed twice gently with Hank's Balanced Salt solution (e.g., use 10 mL per T-1 50 flask). The excess solution is removed and the cells bathed for 15-30 min. in an enzyme-free Cell Dissociation Buffer (e.g., use 8 mL Hank's Based, Gibco Cat. #13150-016 per T-150 flask) until cells are loosened. The contents are transferred to centrifuge tubes (50 mL size) kept in ice bath. All subsequent steps are done at 4° C. The tubes are centrifuged at 300×g for 15 min (1380 rpm on SORVAL, Model RT6000D, using rotor for 50 mL tubes). The supernatant is discarded and the cells suspended in homogenizing buffer (10 mM Tris-HCl containing 0.25 M sucrose and 1 mM EDTA, pH 7.4) ensuring that the volume of the buffer is about ten times the volume of the cell pellet. The cells are pooled into a centrifuge tube (50 mL) and homogenized with a Polytron at setting 6 for 10 sec. The homogenate is transferred into a Potter-Elvjehm homogenizer and homogenized with 3 strokes. The homogenate is centrifuged at 1500×g for 10 min at 4° C. (3100 rpm using SORVAL, model RT6000D, using rotor for 50 mL tubes). The pellet is discarded. The supernatant is centrifuged at 100,000×g for 60 min. at 4° C. (Beckman L8-80M ultracentrifuge; spin at 37,500 rpm with rotor type 70 Ti for 50 mL tubes; 38,000 rpm with type 80Ti for 15 mL tubes; or 35,800 rpm with rotor type 45Ti). The supernantant is discarded and the pellet suspended in 3 to 4 mL of Tris buffer (50 mM TRIS—HCl, pH 7.4). The protein content is estimated by the Bradford or Lowry method. The volume of the membrane suspension is adjusted with the membrane buffer (50 mM Tris-HCl containing 0.1% BSA and 0.1 mM PMSF) to give 3.0 mg/mL (or as appropriate) of protein. The membranes are aliquoted and stored at −70° C.
C. Radioligand Binding Assay
In wells of a 96-well format microtiter plate, is added 90, 110 or 130 μL (to make up a final volume of 200 μL) of assay buffer containing 50 mM of Tris-HCl (pH 7.4), […], 1 mg % aprotinin, 1 mg % leupeptin, 2 mg % 1,10-phenanthroline, 10 mg % trypsin inhibitor, and 0.1 mM PMSF. […]

`COc1ccccc1-c1ccc(C(=O)N2Cc3ccc(C(=O)N4CCN(CCO)CC4)n3Cc3ccccc32)cc1OC` [Example 43, {10-[(2,2′-Dimethoxy[1,1′-biphenyl]-4-yl)carbonyl]-10,11-dihydro-5H-pyrrolo[2,1-c][1,4]benzodiazepin-3-yl}[4-(2-hydroxyethyl)-1-piperazinyl]methanone] showed an inhibition at 0.1 µM of 75%.

`COc1cccc(-c2ccc(C(=O)N3Cc4ccc(C(=O)N5CCN(CCO)CC5)n4Cc4ccccc43)cc2C)c1` [Example 44, [4-(2-Hydroxyethyl)-1-piperazinyl]{10-[(3′-methoxy-2-methyl[1,1′-biphenyl]-4yl)carbonyl]-10,11-dihydro-5H-pyrrolo[2,1-c][1,4]benzodiazepin-3-yl}methanone] was tested, and the inhibition at 0.1 µM was 83%.

Compound `Cc1ccccc1-c1ccc(C(=O)N2Cc3ccc(C(=O)N4CCN(CCO)CC4)n3Cc3ccccc32)cc1` [Example 45, [4-(2-Hydroxyethyl)-1-piperazinyl]{10-[(2′-methyl[1,1′-biphenyl]-4-yl)carbonyl]-10,11-dihydro-5H-pyrrolo[2,1-c][1,4]benzodiazepin-3-yl}methanone] has an inhibition at 0.1 µM of 87%.

Compound `Cc1ccccc1-c1ccc(C(=O)N2Cc3ccc(C(=O)N4CCN(CCO)CC4)n3Cc3ccccc32)cc1C` [Example 46, {10-[(2,2′-Dimethyl[1,1′-biphenyl]-4-yl)carbonyl]-10,11-dihydro-5H-pyrrolo[2,1-c][1,4]benzodiazepin-3-yl}[4-(2-hydroxyethyl)-1-piperazinyl]methanone] has an inhibition at 0.1 µM of 97%.

Work on `COc1ccccc1-c1ccc(C(=O)N2Cc3ccc(C(=O)N4CCN(CCO)CC4)n3Cc3ccccc32)cc1` [Example 47, [4-(2-Hydroxyethyl)-1-piperazinyl]{10-[(2′-methoxy[1,1′-biphenyl]-4-yl)carbonyl]-10,11-dihydro-5H-pyrrolo[2,1-c][1,4]benzodiazepin-3-yl}methanone] yielded an inhibition at 0.1 µM of 55%.

With `Cc1cc(C(=O)N2Cc3ccc(C(=O)N4CCN(CCO)CC4)n3Cc3ccccc32)ccc1-c1ccccc1C(F)(F)F` [Example 48, [4-(2-Hydroxyethyl)-1-piperazinyl](10-{[2-methyl-2′-(trifluoromethyl)[1,1′-biphenyl]-4-yl)carbonyl}-10,11-dihydro-5H-pyrrolo[2,1-c][1,4]benzodiazepin-3-yl)methanone] the inhibition at 0.1 µM was 79%.

With `COc1cccc(-c2cc(OC)c(C(=O)N3Cc4ccc(C(=O)N5CCN(CCO)CC5)n4Cc4ccccc43)cc2Cl)c1` [Example 49, {10-[(6-Chloro-3,3′-dimethoxy[1,1′-biphenyl]-4-yl)carbonyl]-10,11-dihydro-5H-pyrrolo[2,1-c][1,4]benzodiazepin-3-yl}[4-(2-hydroxyethyl)-1-piperazinyl]methanone] the inhibition at 0.1 µM was 81%.

Compound `COc1cccc(-c2ccc(C(=O)N3Cc4ccc(C(=O)N5CCN(CCO)CC5)n4Cc4ccccc43)cc2OC)c1` [Example 50, {10-[(2,3′-Dimethoxy[1,1′-biphenyl]-4-yl)carbonyl]-10,11-dihydro-5H-pyrrolo[2,1-c][1,4]benzodiazepin-3-yl}[4-(2-hydroxyethyl)-1-piperazinyl]methanone] has an inhibition at 0.1 µM of 83%.

In the case of `COc1cc(C(=O)N2Cc3ccc(C(=O)N4CCN(CCO)CC4)n3Cc3ccccc32)ccc1-n1c(C)ccc1C` [Example 52, {10-[4-(2,5-Dimethyl-1H-pyrrol-1-yl)-3-methoxybenzoyl]-10,11-dihydro-5H-pyrrolo[2,1-c][1,4]benzodiazepin-3-yl}[4-(2-hydroxyethyl)-1-piperazinyl]methanone], the inhibition at 0.1 µM is reported as 36%.

For “{(2S)-1-[(10-{[2-Methoxy-2(trifluoromethyl)[1,1′-biphenyl]-4-yl]carbonyl}-10,11-dihydro-5H-pyrrolo[2,1-c][1,4]benzodiazepin-3-yl)carbonyl]pyrrolidin-2-yl}-methanol [Example 36]”, the IC50 (value printed in parentheses, read-out: OT (IC50)) was 7.95 nM.
